This note sets out measurements from patent US9670162B2, “Mitochondrial aldehyde dehyrogenase-2 modulators and methods of use thereof” (The Board of Trustees of the Leland Stanford Junior …, priority 2013, dated 2017).

Substitutions are numbered along the chain they refer to.

For one data set, the target named is T1, human ALDH2 wild type (Homo sapiens, UniProt P05091).
T1 construct: His-tag (pTrcHis vector) (N); made in house; host or cells: E. coli BL21
T1 sequence (P05091 18-517): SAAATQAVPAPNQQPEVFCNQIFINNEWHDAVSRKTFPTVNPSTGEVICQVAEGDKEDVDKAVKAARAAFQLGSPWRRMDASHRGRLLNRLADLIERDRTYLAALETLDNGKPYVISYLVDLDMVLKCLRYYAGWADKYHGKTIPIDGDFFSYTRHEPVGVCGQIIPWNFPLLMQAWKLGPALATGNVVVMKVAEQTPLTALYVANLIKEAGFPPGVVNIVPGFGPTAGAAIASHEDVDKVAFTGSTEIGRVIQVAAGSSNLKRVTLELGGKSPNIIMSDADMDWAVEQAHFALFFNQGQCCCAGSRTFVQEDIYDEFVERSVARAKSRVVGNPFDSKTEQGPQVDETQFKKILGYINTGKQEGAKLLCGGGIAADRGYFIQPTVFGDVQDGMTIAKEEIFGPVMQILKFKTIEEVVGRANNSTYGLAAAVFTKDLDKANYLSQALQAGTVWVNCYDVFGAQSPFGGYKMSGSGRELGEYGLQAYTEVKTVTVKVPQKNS
The data set is described as follows: ALDH2 enzymatic assay (NADH at 340 nm), recombinant wild type enzyme. More on the design: key: −: no activation or inhibition; +: activation less than control 1; ++: activation similar to control 1, within 10%; +++: activation more than control 1 and less than control (compound 161); ++++: activation similar to compound 161, within 10%. The following applies: activation relative to benchmarks control 1 and compound 161. The class given is biochemical.

The target of data set [1] is T2, human ALDH2*2 recombinant mutant enzyme (E487K) (Homo sapiens, UniProt P05091, E504K).
T2 construct: His-tag (pTrcHis vector) (N); made in house; host or cells: E. coli BL21
T2 sequence (P05091 18-517 E504K): T1 sequence (P05091 18-517) with E487K
Description: ALDH2 enzymatic assay (NADH at 340 nm), recombinant mutant enzyme. In kind it is biochemical. More on the design: key: −: no activation or inhibition; +: activation less than control 1; ++: activation similar to control 1, within 10%; +++: activation more than control 1 and less than control (compound 161); ++++: activation similar to compound 161, within 10%. The following applies: activation relative to benchmarks control 1 and compound 161.

Another data set is described as follows: Aqueous solubility. In kind it is physicochemical. How it is done: (§1) In vitro ADMET of compounds of the present disclosure was carried out according to known methods in the art. Below are data for certain compounds of the present disclosure.
A short description of the next data set: HLM stability T1/2. In kind it is in vitro ADME. The following applies: human, liver microsomes; read-out: metabolism (HLM, t1/2). How it is done: as §1
In general terms: Microsomes from liver hold many membrane-bound enzymes, among them those of drug oxidation.

A short description of the next data set: Plasma stability, human. In kind it is in vitro ADME. As to the method: as §1
The nature of a further data set: RLM stability T1/2. In kind it is in vitro ADME. The following applies: rat, liver microsomes. How it is done:
as §1

The target in another data set is CYP2D6 (Homo sapiens, UniProt P10635). The data set is described as follows: Cyp inhibition 2D6. The class given is in vitro ADME. How it is done: as §1
Chain of CYP2D6 (P10635 whole entry): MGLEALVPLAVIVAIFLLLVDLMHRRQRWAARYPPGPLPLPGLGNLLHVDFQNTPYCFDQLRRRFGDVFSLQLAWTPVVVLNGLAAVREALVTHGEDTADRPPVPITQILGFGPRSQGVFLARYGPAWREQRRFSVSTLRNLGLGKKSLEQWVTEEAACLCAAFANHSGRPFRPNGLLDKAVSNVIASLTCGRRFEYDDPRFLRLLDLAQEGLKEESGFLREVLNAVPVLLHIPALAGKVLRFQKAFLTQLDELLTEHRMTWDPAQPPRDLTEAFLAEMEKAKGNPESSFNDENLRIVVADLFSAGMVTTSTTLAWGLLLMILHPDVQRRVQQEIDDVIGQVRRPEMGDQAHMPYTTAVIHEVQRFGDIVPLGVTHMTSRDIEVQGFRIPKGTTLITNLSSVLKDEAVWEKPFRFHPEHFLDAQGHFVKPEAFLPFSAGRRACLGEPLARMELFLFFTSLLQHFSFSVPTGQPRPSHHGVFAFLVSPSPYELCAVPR
The nature of the next data set: Plasma stability, rat. In kind it is in vitro ADME. As to the method: as §1
The next data set in a line: NHPLM stability T1/2. To be noted: monkey, liver microsomes. The class given is in vitro ADME. How it is done:
as §1

On to `COc1ccc(CNC(=O)c2c(Cl)ccnc2OCC2CC2)cc1F` [Compound 161], for which, on human ALDH2 wild type, the “ALDH2 (wild-type)” value is listed as “++++”. Besides, the “ALDH2 (mutant)” value in data set [1] is “++++”. The “Aqu. Solu.” value in “Aqueous solubility” turned out to be 28 µg/mL. For the same compound, the half-life was found to be 12.4 min in “HLM stability T1/2”, 0.974 min in the data set “RLM stability T1/2” and 2.54 min in “NHPLM stability T1/2”. Moreover, in “Plasma stability, human” (5 h), the “plasma stability (human, 5 h)” value is 100%. Also, the Plasma stability Human in “Plasma stability, human” (plasma) was 100%. In addition, the inhibition (as a rule, the relative decrease from the control value, in per cent) at 10 µM against CYP2D6 stood at 6.4%. In the data set “Plasma stability, rat”, the Plasma stability Rat was found to be 100%.
